Laboratory results as given in patent US20230132140A1, “METHOD OF TREATING CANCER” (Celloram Inc., priority 2021, published 2023).

tested on: not listed separately; assay: Immunogenicity of NeoAgs screened by Deepomics algorithm; details: not given

Sequence	immunogenic characteristics of NeoAgs
GVRAALPTPR (SEQ ID NO: 4) (listed as Mus sp.) [MT4-7]	poorly immunogenic
RVGGHLRLSGQ (SEQ ID NO: 3) (listed as Mus sp.) [MT4-6]	poorly immunogenic
HRAERPFPEED (SEQ ID NO: 1) (listed as Mus sp.) [MT4-1]	poorly immunogenic
LTPSFPVSP (SEQ ID NO: 2) (listed as Mus sp.) [MT4-2]	poorly immunogenic
QAGPVLPTSLE (SEQ ID NO: 5) (listed as Mus sp.) [MT4-8]	poorly immunogenic

tested on: COVID-19 patient's PBMC; assay: not given; details: cited from earlier work

Sequence	induction of T cell responses
TRFQTLLALHRSYLT (SEQ ID NO: 10) [Spike S236-250 peptide]	able to induce T cell responses
